Measured values reported in patent US20240270762A1, “PENICILLIN-BINDING PROTEIN INHIBITORS” (priority 2021, published 2024).
Values after ≈ are worked out from the molar mass of the structure shown.

Assays:
Test in all cases: microbe, parasite or virus in culture
Assay type in all cases: cell-based
A. baumannii CDC-0083 = settings: Acinetobacter baumannii, CDC0083, read-out: MIC, A. baumannii CDC-0083
A. baumannii ATCC 17978 = settings: Acinetobacter baumannii, ATCC17978, read-out: MIC, A. baumannii ATCC 17978
A. baumannii ATCC 19606 = settings: Acinetobacter baumannii, ATCC19606, read-out: MIC, A. baumannii ATCC 19606
B. pseudomallei Bp82 = settings: Burkholderia pseudomallei, BP82, read-out: Minimum inhibitory concentration, B. pseudomallei Bp82

| SMILES | MIC (A. baumannii CDC-0083) [µg/mL] | MIC (A. baumannii ATCC 17978) [µg/mL] | MIC (A. baumannii ATCC 19606) [µg/mL] | MIC (B. pseudomallei Bp82) [µg/mL] |
| --- | --- | --- | --- | --- |
| O=C(N[C@@H](C(=O)N[C@H]1Cc2cccc(C(=O)O)c2OB1O)c1ccc(P(=O)(O)O)cc1)c1ccc(O)c(O)c1Cl [Example 49, (R)-3-((R)-2-(2-chloro-3,4-dihydroxybenzamido)-2-(4-phosphonophenyl)acetamido)-2-hydroxy-3,4-dihydro-2H-benzo[e][1,2]oxaborinine-8-carboxylic acid] | > 128 | < 1 | < 1 |  |
| O=C(NCCN1CCN(C(=O)NC(C(=O)N[C@H]2Cc3ccc(F)c(C(=O)O)c3OB2O)c2ccc(P(=O)(O)O)cc2)C(=O)C1=O)c1ccc(O)c(O)c1Cl (stereo partly drawn) [Example 120, (3R)-3-(2-(4-(2-(2-chloro-3,4-dihydroxybenzamido)ethyl)-2,3-dioxopiperazine-1-carboxamido)-2-(4-phosphonophenyl)acetamido)-7-fluoro-2-hydroxy-3,4-dihydro-2H-benzo[e][1,2]oxaborinine-8-carboxylic acid] | < 1 | < 1 | < 1 |  |
| O=C(O)c1c(F)ccc2c1OB(O)[C@@H](NC(=O)C(NC(=O)N1CCN(Cc3ccc(O)c(O)c3Cl)C(=O)C1=O)c1ccc(P(=O)(O)O)cc1)C2 (stereo partly drawn) [Example 8, (3R)-3-(2-(4-(2-chloro-3,4-dihydroxybenzyl)-2,3-dioxopiperazine-1-carboxamido)-2-(4-phosphonophenyl)acetamido)-7-fluoro-2-hydroxy-3,4-dihydro-2H-benzo[e][1,2]oxaborinine-8-carboxylic acid] | < 1 | < 1 | < 1 | < 1 |
| CS(=O)(=O)N1CCN(C(=O)N[C@@H](C(=O)N[C@H]2Cc3ccc(F)c(C(=O)O)c3OB2O)c2ccc(P(=O)(O)O)c(F)c2)C1=O (single isomer, unassigned) [Example 19] | > 128 | 8 to 16 (≈ 12.4 to 24.8 µM) | 32 to 64 (≈ 49.5 to 99 µM) |  |
| O=C(O)c1c(F)ccc2c1OB(O)[C@@H](NC(=O)C(NC(=O)N1CCN(Cc3cc(F)c(O)c(O)c3Cl)C(=O)C1=O)c1ccc(P(=O)(O)O)cc1)C2 (stereo partly drawn) [Example 45, (3R)-3-(2-(4-(2-chloro-5-fluoro-3,4-dihydroxybenzyl)-2,3-dioxopiperazine-1-carboxamido)-2-(4-phosphonophenyl)acetamido)-7-fluoro-2-hydroxy-3,4-dihydro-2H-benzo[e][1,2]oxaborinine-8-carboxylic acid] | < 1 | < 1 | < 1 |  |
| O=C(O)c1cccc2c1OB(O)[C@@H](NC(=O)C(NC(=O)N1CCN(Cc3ccc(O)c(O)c3Cl)C(=O)C1=O)c1ccc(P(=O)(O)O)cc1)C2 (stereo partly drawn) [Example 24, (3R)-3-(2-(4-(2-chloro-3,4-dihydroxybenzyl)-2,3-dioxopiperazine-1-carboxamido)-2-(4-phosphonophenyl)acetamido)-2-hydroxy-3,4-dihydro-2H-benzo[e][1,2]oxaborinine-8-carboxylic acid] | < 1 | < 1 | < 1 |  |
| O=C(O)c1c(F)ccc2c1OB(O)[C@@H](NC(=O)C(NC(=O)N1CCN(Cc3ccc(O)c(O)c3Cl)C(=O)C1=O)c1ccc(P(=O)(O)O)c(F)c1)C2 (stereo partly drawn) [Example 23, (3R)-3-(2-(4-(2-chloro-3,4-dihydroxybenzyl)-2,3-dioxopiperazine-1-carboxamido)-2-(3-fluoro-4-phosphonophenyl)acetamido)-7-fluoro-2-hydroxy-3,4-dihydro-2H-benzo[e][1,2]oxaborinine-8-carboxylic acid] | < 1 | < 1 | < 1 |  |
